{"source": "patent US20220409560A1", "about": "“Pharmaceutical Compositions, Formulations And Methods For The Treatment Of Retinoblastoma” (Oxular Limited, priority 2019, published 2022)", "key": {"Y79 cell line": {"tested_on": "Y79 cell line", "assay": "Retinoblastoma cell proliferation inhibition assay (Cell Titer Glo, 72 hour incubation)", "type": "cell-based, human"}, "[1]": {"tested_on": "WERI cell line (WERI-Rb1)", "assay": "Retinoblastoma cell proliferation inhibition assay (Cell Titer Glo, 72 hour incubation)", "type": "cell-based, human"}, "[2]": {"assay": "Ocular pharmacokinetic study, suprachoroidal administration of micelle formulation, tissue concentration by LCMS", "type": "in vivo, New Zealand White rabbits", "details": "25 μg dose, micellular formulation, rabbit", "text": "Both solutions were filter sterilized by passage through a sterile 0.2 micron nylon syringe filter into a sterile vial to produce a sterile formulation. The mixture was vortex mixed to produce a micelle suspension. […] A flexible catheter with 250 micron OD and 140 micron ID was surgically introduced into the suprachoroidal space in the anterior region of the eye at the pars plana. The catheter was advanced posteriorly toward the posterior region of the suprachoroidal space. The catheter was configured to conduct light and provided illumination of the catheter tip and shaft to determine the catheter position and configuration by trans-scleral visualization. The illuminated tip of the catheter was used to position the catheter in the posterior region of the suprachoroidal space. The illuminated shaft of the catheter was used to manipulate and position the catheter to direct the injection toward the posterior region of the space. […] The eyes were examined by slit lamp in the anterior segment and by indirect ophthalmoscopy in the posterior segment prior to euthanasia for each time point at 1, 3, 7, 14 days post administration."}, "[3]": {"tested_on": "Human retinoblastoma tumour cells, Y79", "assay": "Retinoblastoma in vivo model, retinoblastoma cell area on the retina by histology", "set-up": "species or system rabbits", "details": "for retinoblastoma cell areas from both H&E staining and antibody staining: culled at 5 weeks; for reduction in retinoblastoma cells in the eyes as compared to sham: p<0.01", "description": "Human retinoblastoma tumour cells, Y79 (ATCC@ HTB-18), were grown in media consisting of RPMI 1640 containing 20% FBS, L-glutamine 200 mM (100×), penicillin/streptomycin 5,000 U/ml and amphotericin B 250 μg/ml, to a target suspension density of 3×10^5 cells/flask in 20 ml of media in a T75 flask. Thirty-two eyes in 16 immunosuppressed rabbits were inoculated with 200,000 cells in 30 μl of serum free media to the posterior retinal surface by intravitreal injection. The animals were studied in 4 groups of 8 eight eyes. Two groups were administered topotecan prepared in 30 μl of sterile saline injected intravitreally through a 29 gauge needle in the posterior region of the vitreous cavity near the tumour cells. One topotecan group was administered a 10 μg dose and a second group administered a 50 μg dose. The topotecan groups were administered the active agent formulation at 2, 3 and 4 weeks after tumour cell inoculation. […] A fourth group was treated with a sham injection of 30 μl sterile saline through a 29 gauge needle in the posterior region of the vitreous near the tumour cells at 2, 3 and 4 weeks after tumour cell inoculation. All animals were culled at 5 weeks to allow processing of the retina and retinoblastoma tumour cells on the retina for histological examination. Macro photography of the flat mounted retinae recorded tumour cell survival on the retinae and then representative sections were removed for fixation and subsequent processing for histology. All samples were cut at 5 μm and stained by H&E and replicate slides stained with human mitochondrial marker antibody to positively identify the human retinoblastoma cells. Slides were then scanned using a slide scanner (Histech or Hamamatsu S360) and retinoblastoma cell area on the retina quantified using CaseViewer software.\nRepresentative histology images are shown in FIG. 4 with arrows indicating the retinoblastoma cells on the retina."}, "BJ cell line [4]": {"tested_on": "BJ cell line", "details": "BJ cell line (normal fibroblast), 72 hour incubation"}, "BJ cell line [5]": {"tested_on": "BJ cell line", "assay": "cells", "details": "Homo sapiens, 72 h"}}, "note": "Read-outs that look alike come from different tables or passages of the source."}
{"smiles": "CC(C)c1ccccc1Cc1cc(C(=O)Nc2ccc(S(=O)(=O)c3ccccc3C(C)(C)C)cc2)c(O)c(O)c1O", "note": "[TW-37]", "values": [{"measurement": "EC50", "setting": "Y79 cell line", "value": 335, "unit": "nM"}, {"measurement": "EC50", "setting": "[1]", "value": 278, "unit": "nM"}, {"measurement": "choroid concentration at 14 days", "setting": "[2]", "value": "near baseline"}, {"measurement": "level of TW-37 in the vitreous", "setting": "[2]", "value": "relatively low levels"}, {"measurement": "retina concentration at 14 days", "setting": "[2]", "value": "near baseline"}, {"measurement": "time of peak concentration in the choroid", "setting": "[2]", "value": 3, "unit": "days"}, {"measurement": "time of peak concentration in the retina", "setting": "[2]", "value": 7, "unit": "days"}, {"measurement": "tissue exposure of TW-37 to the target retina after a single administration", "setting": "[2]", "value": 14, "unit": "days"}, {"measurement": "retinoblastoma cell areas from both H&E staining and antibody staining", "setting": "[3]; 10 μg in DMSO intravitreal at 3 and 4 weeks after inoculation", "value": "lower compared to sham"}, {"measurement": "reduction in retinoblastoma cells in the eyes as compared to sham", "setting": "[3]; 10 μg intravitreal at 3 and 4 weeks", "value": "statistically significant reduction"}, {"measurement": "EC50", "setting": "BJ cell line [4]", "value": "> 8760", "unit": "nM"}]}
{"smiles": "Cc1cc2c(C(=O)NC[C@H](C)c3ccccc3)c(O)c(O)cc2c(O)c1-c1c(C)cc2c(C(=O)NC[C@H](C)c3ccccc3)c(O)c(O)cc2c1O", "note": "[Sabutoclax]", "values": [{"measurement": "EC50", "setting": "Y79 cell line", "value": 316, "unit": "nM"}, {"measurement": "EC50", "setting": "[1]", "value": 211, "unit": "nM"}, {"measurement": "EC50", "setting": "BJ cell line [4]", "value": "> 3650", "unit": "nM"}]}
{"smiles": "CC[C@@]1(O)C(=O)OCc2c1cc1n(c2=O)Cc2cc3c(CN(C)C)c(O)ccc3nc2-1", "note": "[Topotecan]", "values": [{"measurement": "EC50", "setting": "Y79 cell line; Homo sapiens", "value": 69, "unit": "nM"}, {"measurement": "EC50", "setting": "[1]; Homo sapiens", "value": 39, "unit": "nM"}, {"measurement": "retinoblastoma cell areas from both H&E staining and antibody staining", "setting": "[3]; 10 μg intravitreal at 2, 3 and 4 weeks after inoculation", "value": "lower compared to sham"}, {"measurement": "retinoblastoma cell areas from both H&E staining and antibody staining", "setting": "[3]; 50 μg intravitreal at 2, 3 and 4 weeks after inoculation", "value": "lower compared to sham"}, {"measurement": "reduction in retinoblastoma cells in the eyes as compared to sham", "setting": "[3]; high dose (50 μg) intravitreal", "value": "statistically significant reduction"}, {"measurement": "EC50", "setting": "BJ cell line [5]", "value": "> 2570", "unit": "nM"}]}
{"smiles": "O=C(CCCCCCC(=O)Nc1ccccc1)NO", "note": "[Vorinostat]", "values": [{"measurement": "EC50", "setting": "BJ cell line [5]", "value": "> 54400", "unit": "nM"}]}
